How the values were obtained:
Type in all cases: cell-based
[1] = system: Escherichia coli (E. coli - ATCC #10536); test: High resolution MBC microtiter plate synergy assay in phosphate buffer containing 35% dipropylene glycol (Example 2); details: for MBC of component alone (MBCA, MBCB): complete kill in 15 seconds, phosphate buffer with 35% DPG, E. coli 10536; for ΣFBC: component alone
Description: The materials were sourced in the same way as for Example 1. Synergy tests were conducted using standard microtiter plate assays with phosphate buffer containing 35% dipropylene glycol (DPG). […] The MBC plate was inoculated one column at a time with the test microorganism. An aliquot of the inoculated well was transferred at 15 seconds to a plate containing a neutralizing agent (D/E Neutralizing Broth), mixed and held for 5 minutes before being transferred to a growth plate containing trypticase soy broth (TSB). The TSB plate was incubated at 37° C. and read for the presence/absence of growth at 24 hours. […] This microorganism is representative of natural contaminants in many consumer and industrial applications.

[2] = system: Escherichia coli (10536 strain); test: Assessment of antimicrobial efficacy and synergy: 15 seconds contact suspension kill test (Example 1); details: for MBC (minimum biocidal concentration): lowest concentration giving complete kill of E. coli, 15 seconds contact, component alone
[3] = system: Escherichia coli (E. coli - ATCC #10536); test: Automated assessment of efficacy in surfactant base, OD readout after 15 seconds exposure (Example 3)
Description: In these examples, the efficacy of combinations of thymol and p-menthene alcohols were tested in a surfactant cleansing formulation comprising 2.85% sodium cocoyl glycinate and 1.85% sodium lauroamphoacetate. This corresponds to a 50% in use dilution with water of a typical neat formulation containing 5.7% cocoyl glycinate and 3.7% % sodium lauroamphoacetate during hand washing. Solutions were prepared such that the concentrations of the surfactant components and test actives were 1.1 times the final desired concentration in order to allow for dilution with the bacterial inoculum in the test. The solutions were manually adjusted to pH 10.0 by dropwise addition of sodium hydroxide solution, as measured with a pH meter at ambient temperature. […]
The efficacy of the combinations of the present invention was determined against the same bacterium as in Example 1, Escherichia coli (E. coli—ATCC #10536), at a concentration of approximately 1×10^8 bacteria per mL.
Tests were conducted using standard microtiter plate assays using an automated liquid handling system. […] After 5 minutes in the DIE quench, the optical density (OD) was measured for each plate in turn at two specific wavelengths (450 nm and 590 nm). […] Delta OD values were calculated by subtracting […] at time=16 hours. […]

SMILES	MBC of component alone (MBCA, MBCB) [1]	ΣFBC [1]	Cb (end-point of second component in the mixture) ([1]; with Ca 0.08 of thymol, ratio A to B 1 to 2.5)	Cb (end-point of second component in the mixture) ([1]; with Ca 0.2 of thymol, ratio A to B 1 to 0.13)	Cb (end-point of second component in the mixture) ([1]; with Ca 0.2 of thymol, ratio A to B 1 to 0.25)	Cb (end-point of second component in the mixture) ([1]; with Ca 0.2 of thymol, ratio A to B 1 to 0.38)	Cb (end-point of second component in the mixture) ([1]; with Ca 0.2 of thymol, ratio A to B 1 to 0.5)	MBC (minimum biocidal concentration) [2]	MBC of p-menthene alcohol ([2]; value used to calculate FBC, for piperitols a lower boundary)	15 second bactericidal efficacy in combination with thymol (in words) ([3]; in combination with thymol at concentrations lower than their MBC, same surfactant formulation, all 4 or 6 replicates)	Ca (end-point of thymol in the mixture) ([1]; with Cb 0.025 of 2-(4-methylcyclohex-3-enyl)-propan-1-ol, ratio A to B 1 to 0.13)	Ca (end-point of thymol in the mixture) ([1]; with Cb 0.05, ratio A to B 1 to 0.25)	Ca (end-point of thymol in the mixture) ([1]; with Cb 0.075, ratio A to B 1 to 0.38)	Ca (end-point of thymol in the mixture) ([1]; with Cb 0.1, ratio A to B 1 to 0.5)	Ca (end-point of thymol in the mixture) ([1]; with Cb 0.2, ratio A to B 1 to 2.5)	thymol concentration required for complete bacterial kill in combination ([2]; in combination with […](w/v) of 2-(4-methylcyclohex-3-enyl)-propan-1-ol, 4-fold reduction)	MBC of thymol ([2]; value used to calculate FBC)	MBC (minimum biocidal concentration) ([3]; in 2.85% sodium cocoyl glycinate + 1.85% sodium lauroamphoacetate solution at pH 10)
CC1=CCC(C(C)CO)CC1 (stereo not drawn) [2-(4-methylcyclohex-3-enyl)-propan-1-ol, 2-(4-methylcyclohex-3-enyl)propan-1-ol]	0.3 weight %	1.00	0.2 weight %	0.025 weight %	0.05 weight %	0.075 weight %	0.1 weight %	0.15 % w/v	0.15 % (w/v)	complete kill	–	–	–	–	–	–	–	–
CC1=CCC(C(C)(C)O)CC1 (stereo not drawn) [alpha-terpineol, reference compound]	–	–	–	–	–	–	–	0.4 % w/v	–	–	–	–	–	–	–	–	–	–
Cc1ccc(C(C)C)c(O)c1 [thymol, 2-isopropyl-5-methylphenol, reference compound]	0.3 weight %	1.00	–	–	–	–	–	–	–	–	0.2 weight %	0.2 weight %	0.2 weight %	0.2 weight %	0.08 weight %	0.0125%	0.025 % (w/v)	>0.2 % w/v

Source: patent US20150050220A1, “ANTIMICROBIAL COMPOSITION” (Rohm and Haas Company, priority 2011, published 2015)
